From US8748482B2, “Lubiprostone crystal, the use and the method for the preparation thereof” (Shanghai Techwell Biopharmaceutical Co., Ltd, priority 2008, dated 2014)

Assay: Comparison of the stability: samples sealed and placed at 40° C. for 7 days, then impurities analysed
Assay type: physicochemical
Conditions: for Initial Product Amount: before storage (initial); for Product Amount (after 7 days at 40° C.): sealed
Method: In the present Example, the stabilities of the oily lubiprostone (prepared according to Example 1) and the final products of Example 1 and Example 2 (crystal samples) were tested, and the results of the tests were compared. Oily lubiprostone, the sample of Example 1, and the sample of Example 2 were separately sealed and placed at 40° C. for 7 days. After completion, the amount of the impurities was analyzed.

Initial Product Amount	Product Amount (after 7 days at 40° C.)	stability (conclusion in words) (based on the data of Table 2 (sealed, 40° C., 7 days))	SMILES
100.0%	99.9%		CCCCC(F)(F)[C@@]1(O)CCC2[C@@H](CC(=O)[C@@H]2CCCCCCC(=O)O)O1 (single isomer, unassigned; (-)) [Example 1]
100.0%	99.9%		CCCCC(F)(F)[C@@]1(O)CCC2[C@@H](CC(=O)[C@@H]2CCCCCCC(=O)O)O1 (single isomer, unassigned; (-)) [Example 2]
99.9%	95.8%		CCCCC(F)(F)[C@@]1(O)CCC2[C@@H](CC(=O)[C@@H]2CCCCCCC(=O)O)O1 (single isomer, unassigned; (-)) [Oily lubiprostone, reference compound]
		excellent stability	CCCCC(F)(F)[C@@]1(O)CCC2[C@@H](CC(=O)[C@@H]2CCCCCCC(=O)O)O1 (single isomer, unassigned; (-)) [lubiprostone crystal]
